Measured values as given in US9527889B2, “RFamide-related peptides and methods thereof” (THE REGENTS OF THE UNIVERSITY OF MICHIGAN, priority 2010, dated 2016).
Entries after “also recorded” stand apart in the source; their conditions may differ. Residues, ends and D or L forms follow the SMILES beside them. No end group written: not given here.

Legend:
[1] = test system: isolated adult rabbit cardiac myocytes; test: Sarcomere shortening in isolated adult rabbit cardiac myocytes; type: cell-based; conditions: pacing at 0.5 Hz and 1 Hz
Description: FIG. 7. A. Representative sarcomere shortening traces in isolated adult rabbit cardiac myocytes paced at 0.5 Hz. A signal-averaged recording from 10 traces was made in myocytes 1 day after isolation (n=3). Recordings show shortening before and 15 minutes after initiating perfusion with 10^−10 M hRFRP-1 or media (control) at 37° C.
Adult rat and rabbit ventricular cardiac myocytes were isolated as previously described (Westfall, M. V. Et al. (1997), Westfall, M. V. and Borton, A. R. (2003)). Hearts from Sprague-Dawley rats and New Zealand white rabbits were perfused and enzymatically digested to isolate myocytes; the protocol was approved by The University of Michigan University Committee on Use and Care of Animals (UCUCA) in accordance with university and federal regulatory guidelines. […]
Sarcomere shortening was detected using a video-based detection system (IonOptix, MA, USA) as described earlier (Westfall, M. V. and Borton, A. R. (2003)). […] Signal averaged data were analyzed to determine resting sarcomere length, shortening amplitude (peak shortening), shortening rate (departure velocity), and re-lengthening rate (return velocity), as previously described (Westfall, M. V. Et al. (1997), Westfall, M. V. and Borton, A. R. (2003)), in 7-20 myocytes from 3-4 rats for each peptide concentration, bis-1, and media.

mouse heart = test: Echocardiography in mice after tail-vein injection; type: in vivo
Description: Echocardiograms were performed as previously described (Boluyl, M. O. Et al. (2004)) according to the recommendations of the American Society of Echocardiography. All echocardiography was performed by one registered echocardiographer. Female C57BL/6 mice were weighed to accurately calculate the amount of peptide delivered per kilogram body weight (kg bw). Animal use for echocardiography was approved by The University of Michigan UCUCA in accordance with university and federal regulatory guidelines. Physiological saline or peptide was intravenously delivered via tail-vein injections to a total volume of 150 μl to achieve 5 μmols or 500 ηmols hRFRP-1/kg bw. Each animal was used only once for an injectant, either physiological saline or peptide (n=4-5). […] Heart rate along with left ventricular end-systolic and end-diastolic dimensions were measured from the two-dimensional sector scans obtained from the parasternal long axis and apical four chamber views using the conventions of the American Society of Echocardiography. […] Left ventricular volumes were measured at end systole (Vols) and end diastole (Vold) and used to calculate stroke volume (SV=Vold−Vols) and ejection fraction (EF %=endocardial SV/endocardial Vold×100). Cardiac output (CO=endocardial SV×heart rate) was calculated from stroke volume and heart rate. […]

[2] = test system: isolated adult rat cardiac myocytes; type: cell-based; conditions: peptides at 10^−8M or 10^−7M; peak shortening, departure and return velocity
Excerpt: Adult rat and rabbit ventricular cardiac myocytes were isolated as previously described (Westfall, M. V. Et al. (1997), Westfall, M. V. and Borton, A. R. (2003)). Hearts from Sprague-Dawley rats and New Zealand white rabbits were perfused and enzymatically digested to isolate myocytes; the protocol was approved by The University of Michigan University Committee on Use and Care of Animals (UCUCA) in accordance with university and federal regulatory guidelines. Aliquots of isolated ventricular myocytes were plated on laminin-coated glass coverslips in serum-containing Dulbecco's Modified Eagle Media (Invitrogen, CA, US) supplemented with 5% fetal bovine serum, and 50 U/ml penicillin and 50 μg/ml streptomycin (pen/strep; Sigma-Aldrich, MO, US). Two hours later, media was replaced with serum-free M199 (Invitrogen) supplemented with 1.8 mM Ca^2+, 10 mM HEPES, 10 mM glutathione, and pen/strep. Rat myocytes were transferred to a stimulation chamber and electrically paced the day after isolation (Zornik, E. Et al. (1999), Westfall, M. V. Et al. (1997)). Media was changed daily for all myocyte preparations.
Sarcomere shortening was detected using a video-based detection system (IonOptix, MA, USA) as described earlier (Westfall, M. V. and Borton, A. R. (2003)). Rat myocytes were paced at 0.2 Hz and rabbit myocytes were paced at 0.5 Hz or 1.0 Hz for these studies. Recordings were made prior to application of each peptide concentration, the protein kinase C (PKC) inhibitor bisindolylmaleimide-1, (bis-1; CalBiochem/EMD, NJ, US), or media only (control, C) and at 1, 3, 5, 10 and 15 minutes after application of peptide, bis-1, or media. Signal averaged data were analyzed to determine resting sarcomere length, shortening amplitude (peak shortening), shortening rate (departure velocity), and re-lengthening rate (return velocity), as previously described (Westfall, M. V. Et al. (1997), Westfall, M. V. and Borton, A. R. (2003)), in 7-20 myocytes from 3-4 rats for each peptide concentration, bis-1, and media.

Row | Compound | arrhythmic beats and after-contractions [1] | effect on the hRFRP-1-induced decrease of contractile performance in vivo (mouse heart; given with hRFRP-1, tail-vein injection) | effect on cardiac function in vivo when applied alone (echocardiographic parameters) (mouse heart; tail-vein injection) | character relative to hRFRP-1 on myocyte contractile function (agonist, antagonist, reverse agonist; in words) [2]
1 | CSCC[C@H](N)C(=O)N1CCC[C@H]1C(=O)N[C@@H](Cc1cnc[nH]1)C(=O)N[C@@H](CO)C(=O)N[C@@H](Cc1ccccc1)C(=O)N[C@@H](C)C(=O)N[C@@H](CC(N)=O)C(=O)N[C@@H](CC(C)C)C(=O)N1CCC[C@H]1C(=O)N[C@@H](CC(C)C)C(=O)N[C@@H](CCCNC(=N)N)C(=O)N[C@@H](Cc1ccccc1)C(N)=O [hRFRP-1] (H-MPHSFANLPLRF-NH2) | not observed | – | – | –
2 | LPLAFamide (LPLAF-NH2) | – | blocked the effects of hRFRP-1 | slight increase in cardiac function; also recorded: enhances cardiac function | hRFRP-1 antagonist
